Key:
Y652A hERG = Y652A hERG (Homo sapiens, UniProt Q12809, Y652A); assay: in vitro; details: HEK-293 cells transiently expressing Y652A mutant hERG
Text: The hERG mutations were constructed by site-directed mutagenesis of WT hERG cDNA in pcDNA3.1 vector using the QuickChange Site-Directed Mutagenesis Kit (Stratagene), and the integrity of the construct was verified by DNA sequencing.

rabbit Purkinje fibers = assay: Action potential recording in rabbit Purkinje fiber; details: for APA / APD50 / APD90 / RMP / Vmax: 1 Hz pacing
Protocol: This study was conducted in facilities approved by the AAALAC (Association for Assessment and Accreditation of Laboratory Animal Care) International. All procedures were approved by our Institutional Animal Care and Use Committee (IACUC). Female New Zealand white rabbits (1.8–2 kg) were anaesthetized with pentobarbital sodium (45 mg/kg intravenously). Their hearts were rapidly removed and placed in normal Tyrode’s solution: 143 NaCl; 5.4 KCl; 5.0 HEPES (4-(2-hydroxyethyl)-1-piperazineethanesulfonic acid); 0.33 H2PO4; 0.5 MgCl2; 16.6 Glucose; 1.8 CaCl2; pH 7.4 aerated with O2 gas. Purkinje fibers (PFs) were excised from the left ventricle and stored in a chamber superfused with normal Tyrode’s solution at 37.0 ± 0.5 °C and 5 mL/min. Action potentials (APs) were recorded using the conventional intracellular recording technique. The tissue preparation was driven by electrical pulses (duration = 2 ms, frequencies of 1 Hz). The signals of APs were amplified with Geneclamp 500B (Molecular Devices Corporation, Sunnyvale, CA, USA) and recorded by Notocord systems (Croissy-sur-Seine, France) for off-line analysis.

IhERG in hiPSC-CMs = target: T1, IhERG in hiPSC-CMs (Homo sapiens, UniProt Q12809); assay: IhERG current in hiPSC-CMs (voltage clamp); type: cell-based; parameters: unit not given here
T1 construct: host or cells: hiPSC-CMs (iCell Cardiomyocytes)
T1 sequence (Q12809 whole entry): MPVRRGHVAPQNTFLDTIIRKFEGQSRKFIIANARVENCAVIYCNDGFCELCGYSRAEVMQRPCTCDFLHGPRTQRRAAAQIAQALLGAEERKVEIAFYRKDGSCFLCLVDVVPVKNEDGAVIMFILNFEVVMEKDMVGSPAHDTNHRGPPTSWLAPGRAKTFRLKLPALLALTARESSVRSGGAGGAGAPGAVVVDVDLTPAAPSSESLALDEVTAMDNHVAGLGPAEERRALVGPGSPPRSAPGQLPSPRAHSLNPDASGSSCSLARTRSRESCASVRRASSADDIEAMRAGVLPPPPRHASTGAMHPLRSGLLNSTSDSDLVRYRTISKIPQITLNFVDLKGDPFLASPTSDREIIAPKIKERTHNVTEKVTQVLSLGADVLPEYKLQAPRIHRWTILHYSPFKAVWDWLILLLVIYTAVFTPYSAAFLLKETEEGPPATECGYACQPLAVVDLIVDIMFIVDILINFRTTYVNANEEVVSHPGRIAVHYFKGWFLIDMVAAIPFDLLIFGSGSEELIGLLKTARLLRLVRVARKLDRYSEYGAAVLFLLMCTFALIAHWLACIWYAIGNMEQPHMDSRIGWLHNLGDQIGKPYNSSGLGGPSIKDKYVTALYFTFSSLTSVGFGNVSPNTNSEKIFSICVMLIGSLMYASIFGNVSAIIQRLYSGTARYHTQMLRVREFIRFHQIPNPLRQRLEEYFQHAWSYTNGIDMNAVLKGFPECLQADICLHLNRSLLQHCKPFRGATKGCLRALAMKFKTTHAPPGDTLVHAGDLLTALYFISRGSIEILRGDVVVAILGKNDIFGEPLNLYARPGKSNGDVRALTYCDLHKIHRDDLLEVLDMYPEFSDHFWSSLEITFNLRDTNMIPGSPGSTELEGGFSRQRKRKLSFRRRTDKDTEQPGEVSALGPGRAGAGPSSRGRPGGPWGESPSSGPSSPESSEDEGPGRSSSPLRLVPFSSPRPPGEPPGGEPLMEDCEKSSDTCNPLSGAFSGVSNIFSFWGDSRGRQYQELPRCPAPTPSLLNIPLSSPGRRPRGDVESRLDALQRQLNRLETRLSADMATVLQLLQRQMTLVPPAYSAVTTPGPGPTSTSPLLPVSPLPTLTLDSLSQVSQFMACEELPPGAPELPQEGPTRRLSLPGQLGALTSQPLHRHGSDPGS
Protocol: The hiPSC-CMs from human fibroblast cell lines (iCell Cardiomyocytes; Cellular Dynamics International, Madison, WI, USA) were purchased and cultured for single-cell electrophysiological recordings. Frozen vials of hiPSC-CMs were thawed in a water bath maintained at 37°C and mixed with ice-cold plating medium (iCell Cardiomyocyte Plating Medium, glucose-free). The cells were transferred to four-well culture plates containing 0.1% gelatin-coated glass coverslips and then maintained in a culture incubator at 37°C in an atmosphere of 93% air and 7% CO2. After 2 days of culture, the plating medium was replaced with culture medium (iCell Cardiomyocyte Maintenance Medium, glucose-free), which was then changed every 2 days. The hiPSC-CMs were cultured for 4 weeks and used at 7 to 28 days post-thaw for electrophysiological analysis. […] The internal solution contained (in mM) 120 K-Asp, 20 KCl, 5 NaCl, 2 CaCl2, 10 HEPES, 5 EGTA, and 5 Mg-ATP (pH 7.25). We recorded typical APs in hiPSC-CMs in the current-clamp mode. The spontaneous beating activity or paced firing of single hiPSC-CMs were recorded, and only hiPSC-CMs that could beat stably were included in the analysis. Following stabilization of the AP waveforms, the average of six recorded APs for each test concentration was analyzed.
(§1) pCLAMP (Axon Instruments, Foster City, CA, USA), Origin 8 (OriginLab Corp, Northampton, MA, USA), and Excel (Microsoft, Redmond, WA, USA) were used for data acquisition and analysis. The concentration–response relationships for drug-induced blockage were calculated using SigmaPlot (Systat Software, San Jose, CA, USA). […] Data are presented as the means ± SEM, and n represents the number of experimental replicates. Statistical significance was determined using the Student’s t-test and one-way ANOVA with post hoc testing using Dunnett’s method; p < 0.05 was considered to indicate statistical significance.

[1] = cited from earlier work
SCN5A (INa) = target: T2, SCN5A (INa) (Homo sapiens, UniProt Q14524); assay: Whole-cell patch clamp, INa in SCN5A-transfected HEK293 cells; type: cell-based; details: for INa current: HEK293
T2 construct: expressed in transfected cells; host or cells: HEK293
T2 sequence (Q14524 whole entry, species assumed): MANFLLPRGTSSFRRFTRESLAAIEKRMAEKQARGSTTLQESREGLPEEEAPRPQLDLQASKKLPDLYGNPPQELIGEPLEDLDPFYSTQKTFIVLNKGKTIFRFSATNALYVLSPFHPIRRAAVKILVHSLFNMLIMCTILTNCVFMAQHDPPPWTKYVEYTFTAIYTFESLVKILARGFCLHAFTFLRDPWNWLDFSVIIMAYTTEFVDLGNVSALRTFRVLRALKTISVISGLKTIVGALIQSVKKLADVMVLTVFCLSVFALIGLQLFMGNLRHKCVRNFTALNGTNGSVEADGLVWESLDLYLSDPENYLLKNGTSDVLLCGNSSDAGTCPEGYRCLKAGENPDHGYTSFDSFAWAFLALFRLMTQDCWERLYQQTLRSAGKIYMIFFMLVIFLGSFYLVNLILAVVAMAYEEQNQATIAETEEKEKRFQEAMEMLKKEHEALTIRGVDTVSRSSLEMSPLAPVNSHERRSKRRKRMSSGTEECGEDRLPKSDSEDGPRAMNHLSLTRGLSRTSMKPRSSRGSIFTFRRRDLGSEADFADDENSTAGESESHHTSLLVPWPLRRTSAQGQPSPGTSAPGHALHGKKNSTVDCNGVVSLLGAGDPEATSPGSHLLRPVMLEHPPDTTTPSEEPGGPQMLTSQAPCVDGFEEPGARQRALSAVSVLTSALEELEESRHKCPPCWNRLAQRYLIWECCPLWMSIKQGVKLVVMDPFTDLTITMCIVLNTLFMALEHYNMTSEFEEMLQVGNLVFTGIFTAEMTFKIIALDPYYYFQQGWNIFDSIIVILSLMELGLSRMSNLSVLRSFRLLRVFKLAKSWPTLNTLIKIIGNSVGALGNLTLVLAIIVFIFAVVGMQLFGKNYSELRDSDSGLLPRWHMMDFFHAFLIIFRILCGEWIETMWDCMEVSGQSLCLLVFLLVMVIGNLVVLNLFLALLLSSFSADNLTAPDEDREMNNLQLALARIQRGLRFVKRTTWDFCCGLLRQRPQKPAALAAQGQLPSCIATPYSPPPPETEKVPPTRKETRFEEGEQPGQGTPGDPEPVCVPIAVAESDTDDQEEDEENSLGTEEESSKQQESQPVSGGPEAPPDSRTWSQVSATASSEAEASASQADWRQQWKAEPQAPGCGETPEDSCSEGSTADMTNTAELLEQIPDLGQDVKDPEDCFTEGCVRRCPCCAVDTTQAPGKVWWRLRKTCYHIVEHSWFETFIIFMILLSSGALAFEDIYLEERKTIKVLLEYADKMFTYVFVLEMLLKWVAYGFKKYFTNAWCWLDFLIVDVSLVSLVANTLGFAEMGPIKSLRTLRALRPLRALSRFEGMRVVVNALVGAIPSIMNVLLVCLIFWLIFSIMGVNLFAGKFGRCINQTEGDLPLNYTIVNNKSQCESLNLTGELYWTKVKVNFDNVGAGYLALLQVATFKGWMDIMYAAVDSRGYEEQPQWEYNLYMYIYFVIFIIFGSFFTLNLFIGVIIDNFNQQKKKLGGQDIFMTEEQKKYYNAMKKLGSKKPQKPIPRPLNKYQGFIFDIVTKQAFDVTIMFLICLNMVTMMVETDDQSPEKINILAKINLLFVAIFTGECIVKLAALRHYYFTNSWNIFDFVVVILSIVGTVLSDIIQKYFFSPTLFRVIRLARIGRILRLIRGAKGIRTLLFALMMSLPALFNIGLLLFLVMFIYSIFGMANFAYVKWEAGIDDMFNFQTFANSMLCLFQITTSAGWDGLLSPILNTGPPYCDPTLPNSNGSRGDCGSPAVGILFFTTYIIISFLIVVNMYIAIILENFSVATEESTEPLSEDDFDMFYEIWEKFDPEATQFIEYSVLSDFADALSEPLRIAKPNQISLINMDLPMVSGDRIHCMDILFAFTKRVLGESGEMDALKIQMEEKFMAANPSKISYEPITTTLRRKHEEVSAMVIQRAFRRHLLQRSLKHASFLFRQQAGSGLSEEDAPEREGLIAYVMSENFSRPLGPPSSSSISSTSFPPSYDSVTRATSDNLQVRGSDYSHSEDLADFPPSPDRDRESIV
Text: For various aspects of cardiac ion channel study, human embryonic kidney (HEK293; ATCC, Manassas, VA, USA) cells were transiently transfected using lipofectAmin2000 (Gibco BRL, New York, NY, USA) according to the manufacturer’s instructions. The hERG (human ether-ago-go-related gene corresponding to IKr), KCNQ1/KCNE1 (the gene corresponding to IKs), KCNJ2 (the gene corresponding to IK1) or SCN5A (the gene corresponding to INa) cDNA was co-transfected with green fluorescence protein, the surface marker protein, to allow assessment of the transfection efficiency. For the calcium current, enzymatically isolated single rat ventricular myocytes were used. Briefly, the hearts were rapidly excised from anaesthetized Sprague–Dawley rats (250–350 g) and perfused via the aorta on a Langendorff apparatus with an oxygenated normal Tyrode (NT) solution for 5 min. To clear the blood, then perfused with Ca^2+-free normal Tyrode solution for 3 min. Next, the heart was perfused with enzyme solution containing 0.6 mg/mL collagenase (Worthington Biomedical Corp., Lakewood, NJ, USA) for 30–40 min. Finally, this enzyme-containing solution was washed out for 5 min. with a high-K^+ and low-Cl^-) Kraft-Bruhe solution. Following the isolation procedure, the left ventricle was dissected out and agitated mechanically with a fire-polished Pasteur pipette in Kraft-Bruhe solution to obtain single myocytes. The isolated myocytes were stored at 4°C until use.
The external solution for recording the IhERG, IKs and INa channel currents was NT solution. […] Kraft-Bruhe solution for storage of the freshly isolated rat ventricular myocytes contained (in mM): 70 K-glutamate, 55 KCl, 10 HEPES, 3 MgCl2, 20 taurine, 20 KH2PO4, 0.5 ethylene glycol tetra acetic (K-EGTA) (pH 7.2 with KOH).
as §1
For hERG tail current, the cells were depolarized for 2 s to +20 mV from a holding potential of -80 mV followed by a 3 s repolarization back to -40 mV. […] For slow delayed rectifier potassium current (IKs) recording, the cells were depolarized for 3s to +60 mV from a holding potential of -80 mV, followed by a 3 s repolarization back to -40 mV (Fig 2B). […]

Sequence of Y652A hERG (Q12809 whole entry Y652A): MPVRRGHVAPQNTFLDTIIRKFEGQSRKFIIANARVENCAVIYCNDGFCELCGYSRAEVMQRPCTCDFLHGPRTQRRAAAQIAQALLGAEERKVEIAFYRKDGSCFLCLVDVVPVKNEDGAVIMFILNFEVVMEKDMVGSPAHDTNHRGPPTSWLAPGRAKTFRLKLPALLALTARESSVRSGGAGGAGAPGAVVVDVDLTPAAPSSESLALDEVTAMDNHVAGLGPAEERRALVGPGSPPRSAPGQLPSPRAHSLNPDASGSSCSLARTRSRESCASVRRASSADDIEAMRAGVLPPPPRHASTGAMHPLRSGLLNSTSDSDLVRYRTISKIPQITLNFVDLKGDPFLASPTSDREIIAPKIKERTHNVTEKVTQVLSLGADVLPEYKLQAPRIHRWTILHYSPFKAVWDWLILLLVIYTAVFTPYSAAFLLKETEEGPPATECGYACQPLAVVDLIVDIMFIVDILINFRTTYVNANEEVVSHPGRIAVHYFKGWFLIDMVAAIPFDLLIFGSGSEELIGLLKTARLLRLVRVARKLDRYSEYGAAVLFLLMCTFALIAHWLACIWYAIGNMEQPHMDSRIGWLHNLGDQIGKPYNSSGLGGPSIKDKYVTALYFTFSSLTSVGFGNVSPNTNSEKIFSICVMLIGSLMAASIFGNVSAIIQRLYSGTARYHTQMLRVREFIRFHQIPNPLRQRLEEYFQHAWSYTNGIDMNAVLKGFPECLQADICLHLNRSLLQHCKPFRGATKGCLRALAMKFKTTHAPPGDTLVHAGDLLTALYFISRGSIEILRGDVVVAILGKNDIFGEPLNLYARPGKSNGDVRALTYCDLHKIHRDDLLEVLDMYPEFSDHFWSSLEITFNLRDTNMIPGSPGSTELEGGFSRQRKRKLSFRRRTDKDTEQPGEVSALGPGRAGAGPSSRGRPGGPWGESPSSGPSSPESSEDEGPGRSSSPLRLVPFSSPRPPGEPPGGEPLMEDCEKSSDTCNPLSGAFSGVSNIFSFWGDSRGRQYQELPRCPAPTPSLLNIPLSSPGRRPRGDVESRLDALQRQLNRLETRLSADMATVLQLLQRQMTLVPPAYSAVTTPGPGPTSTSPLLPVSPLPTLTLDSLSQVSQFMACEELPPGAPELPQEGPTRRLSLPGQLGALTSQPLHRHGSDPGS

COc1cc2c(Nc3ccc(Br)cc3F)ncnc2cc1OCC1CCN(C)CC1 [Vandetanib]
inhibition at 3 μM (Y652A hERG): 64.2 ± 2.8% | APA (rabbit Purkinje fibers; 0.3 μM): 118.0 ± 1.9 mV | APD50 (rabbit Purkinje fibers; 0.3 μM): 218.9 ± 20.3 ms | APD90 (rabbit Purkinje fibers; 0.3 μM): 300.1 ± 21.0 ms | RMP (rabbit Purkinje fibers; 0.3 μM): -82.2 ± 0.4 mV | Vmax (rabbit Purkinje fibers; 0.3 μM): 380.9 ± 82.9 V/s | APD90 increase compared to vehicle control (rabbit Purkinje fibers; 1 μM): 31% | APA (rabbit Purkinje fibers; 1 μM): 118.1 ± 2.1 mV | APD90 (rabbit Purkinje fibers; 1 μM): 354.0 ± 25.2 ms | RMP (rabbit Purkinje fibers; 1 μM): -82.2 ± 1.2 mV | Vmax (rabbit Purkinje fibers; 1 μM): 379.9 ± 91.1 V/s | APD50 increase compared to vehicle control (rabbit Purkinje fibers; 3 μM): 38.9% | APD90 increase compared to vehicle control (rabbit Purkinje fibers; 3 μM): 55.6% | APA (rabbit Purkinje fibers; 3 μM): 118.1 ± 1.5 mV | APD50 (rabbit Purkinje fibers; 3 μM): 289.6 ± 21.4 ms | APD90 (rabbit Purkinje fibers; 3 μM): 417.1 ± 20.6 ms | RMP (rabbit Purkinje fibers; 3 μM): -82.3 ± 2.5 mV | Vmax (rabbit Purkinje fibers; 3 μM): 382.8 ± 64.6 V/s | Effect on RMP, APA, and Vmax (rabbit Purkinje fibers; concentrations up to 3 μM): did not significantly alter | IhERG current (IhERG in hiPSC-CMs; 0.1 μM): 196.0 ± 3.2 | IhERG current (IhERG in hiPSC-CMs; 0.3 μM): 164.9 ± 9.4 | IhERG current (IhERG in hiPSC-CMs; 1 μM): 92.8 ± 11.2 | IhERG current (IhERG in hiPSC-CMs; 3 μM): 20.4 ± 4.4 | Incidence of asymptomatic QTc prolongation ([1]; Japanese phase I trial): 61% | Patients with side effects such as diarrhea/colitis, rash, nausea, and hypertension ([1]; patients): > 20% | Patients who developed asymptomatic QTc prolongation ([1]; phase I trial in solid tumors): 9% | Incidence of asymptomatic QT prolongation ([1]; phase II trials): 15% | INa current (SCN5A (INa); 10 μM): -948.9 ± 24.2 | INa current (SCN5A (INa); 30 μM): -743.0 ± 85.1 | INa current (SCN5A (INa); 100 μM): -94.2 ± 36.8 | IC50 (SCN5A (INa); SCN5A-encoded HEK293 cells): 36.6 µM

From article PMC5891061, “Electrophysiological mechanisms of vandetanib-induced cardiotoxicity: Comparison of action potentials in rabbit Purkinje fibers and pluripotent stem cell-derived cardiomyocytes” (PLoS ONE, 2018)
